Results taken from patent US4416884A, “Piperazinylbenzoheterocyclic compounds” (Otsuka Pharmaceutical Co., Ltd., priority 1978, dated 1983).
≈ marks a conversion by molar mass, not a printed value. Like-named read-outs stand apart in the source and are kept apart here.

Tests used:
Assay type in all cases: cell-based
[1] = test system: Test Organism 16 (Pseudomonas maltophilia IFO 12692); test: influence of the addition of horse serum on the MIC; conditions: Stenotrophomonas maltophilia
[2] = test system: Salmonella typhi 0-901 (NCTC 8393); test: antimicrobial activity, serial dilution method on agar plate; conditions: Salmonella enterica, read-out: Minimum Inhibitory Concentration
Summary of the method: (§1)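 Two inoculum levels used: 1×10^8 cells/ml (O.D. 660 mμ = 0.07–0.16) and a diluted 1×10^6 cells/ml preparation. Minimum inhibitory concentrations in mcg/ml read from serial dilution on Heart Infusion agar plates.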

Klebsiella pneumoniae = test: as above
Summary of the method: as §1

[3] = test system: Corinebacterium diphteriae; test: as above
Summary of the method: as §1

Proteus rettgeri NIH 96 = test: as above; conditions: Providencia rettgeri
Summary of the method: as §1

[4] = test system: Proteus morganii IID Kono; test: as above; conditions: Morganella morganii
Summary of the method: as §1

Enterobacter cloacae = test: as above
Summary of the method: as §1

Shigella Sonnei EW 33 = test: as above; conditions: read-out: Minimum Inhibitory Concentration
Summary of the method: as §1

[5] = test system: Staphylococcus aureus FDA 209 P; test: as above
Summary of the method: as §1

[6] = test system: Serattia marcescens IFO 12648; test: as above
Summary of the method: as §1

[7] = test system: Pseudomonas aeruginosa E-2; test: as above
Summary of the method: as §1

[8] = test system: Klebsiella pneumoniae ST-101; test: as above
Summary of the method: as §1

[9] = test system: Enterobacter aerogenes IFO 12979; test: as above; conditions: Klebsiella aerogenes
Summary of the method: as §1

[10] = test system: Bacillus subtilis PCI 219; test: as above
Summary of the method: as §1

[11] = test system: Proteus vulgaris IID OX-19; test: as above; conditions: read-out: Minimum Inhibitory Concentration
Summary of the method: as §1

[12] = test system: Streptococcus pyogenes IID S-23; test: as above
Summary of the method: as §1

Escherichia Coli NIHJ = test: as above
Summary of the method: as §1

[13] = test system: Streptococcus pneumoniae Type III; test: as above
Summary of the method: as §1

[14] = test system: Streptococcus pyogenes IID Cook; test: as above
Summary of the method: as §1

[15] = test system: Yersinia enterocolitica 0-3; test: as above
Summary of the method: as §1

[16] = test system: Pseudomonas maltophilia IFO 12692; test: as above; conditions: Stenotrophomonas maltophilia, IFO12692, read-out: Minimum Inhibitory Concentration
Summary of the method: as §1

[17] = test system: Test Organism 1 (Escherichia Coli NIHJ); test: influence of the addition of horse serum on the MIC
[18] = test system: Test Organism 27 (Streptococcus pneumoniae Type III); test: as above
[19] = test system: Test Organism 17 (Pseudomonas putida IFO 13696); test: as above
[20] = read-out: Minimum Inhibitory Concentration, inoculum 1 × 10^6 cells/ml
[21] = read-out: Minimum Inhibitory Concentration, inoculum 1 × 10^8 cells/ml
[22] = read-out: Minimum Inhibitory Concentration, horse serum 0%, inoculum 10^6
[23] = read-out: Minimum Inhibitory Concentration, horse serum 0%, inoculum 10^8
[24] = read-out: Minimum Inhibitory Concentration, horse serum 10%, inoculum 10^6
[25] = read-out: Minimum Inhibitory Concentration, horse serum 10%, inoculum 10^8
[26] = read-out: Minimum Inhibitory Concentration, horse serum 20%, inoculum 10^6
[27] = read-out: Minimum Inhibitory Concentration, horse serum 20%, inoculum 10^8
[28] = read-out: Minimum Inhibitory Concentration, horse serum 40%, inoculum 10^6
[29] = read-out: Minimum Inhibitory Concentration, horse serum 40%, inoculum 10^8

For `CC1Cc2c(N3CCNCC3)ccc3c(=O)c(C(=O)O)cn1c23` (centres unmarked) [C], the MIC ([1]; IFO12692, read-out: Minimum Inhibitory Concentration, horse serum 0%, inoculum 10^6) was 1.6 µg/mL (≈ 5.11 µM), the MIC ([1]; IFO12692, read-out: Minimum Inhibitory Concentration, horse serum 0%, inoculum 10^8) was 1.6 µg/mL (≈ 5.11 µM) and the MIC ([1]; IFO12692, read-out: Minimum Inhibitory Concentration, horse serum 10%, inoculum 10^6) was 1.6 µg/mL (≈ 5.11 µM). It also gave an MIC ([1]; IFO12692, read-out: Minimum Inhibitory Concentration, horse serum 10%, inoculum 10^8) of 1.6 µg/mL (≈ 5.11 µM), an MIC ([1]; IFO12692, read-out: Minimum Inhibitory Concentration, horse serum 20%, inoculum 10^6) of 0.4 µg/mL (≈ 1.28 µM) and an MIC ([1]; IFO12692, read-out: Minimum Inhibitory Concentration, horse serum 20%, inoculum 10^8) of 0.8 µg/mL (≈ 2.55 µM). The MIC ([1]; IFO12692, read-out: Minimum Inhibitory Concentration, horse serum 40%, inoculum 10^6) was 0.4 µg/mL (≈ 1.28 µM), the MIC ([1]; IFO12692, read-out: Minimum Inhibitory Concentration, horse serum 40%, inoculum 10^8) was 0.4 µg/mL (≈ 1.28 µM) and the MIC ([2]; inoculum 1 × 10^6 cells/ml) was 0.2 µg/mL (≈ 0.638 µM). It also gave an MIC ([2]; inoculum 1 × 10^8 cells/ml) of 0.4 µg/mL (≈ 1.28 µM), an MIC (Klebsiella pneumoniae; [20]) of 0.8 µg/mL (≈ 2.55 µM) and an MIC (Klebsiella pneumoniae; [21]) of 0.8 µg/mL (≈ 2.55 µM). It also gave an MIC [3, 20] of 6.3 µg/mL (≈ 20.1 µM), an MIC [3, 21] of 25 µg/mL (≈ 79.8 µM) and an MIC (Proteus rettgeri NIH 96; NIH96, read-out: Minimum Inhibitory Concentration, inoculum 1 × 10^6 cells/ml) of 0.8 µg/mL (≈ 2.55 µM). The MIC (Proteus rettgeri NIH 96; NIH96, read-out: Minimum Inhibitory Concentration, inoculum 1 × 10^8 cells/ml) was 0.8 µg/mL (≈ 2.55 µM), the MIC [4, 20] was 3.1 µg/mL (≈ 9.89 µM) and the MIC [4, 21] was 3.1 µg/mL (≈ 9.89 µM). It also gave an MIC (Enterobacter cloacae; [20]) of 0.4 µg/mL (≈ 1.28 µM), an MIC (Enterobacter cloacae; [21]) of 0.8 µg/mL (≈ 2.55 µM) and an MIC (Shigella Sonnei EW 33; inoculum 1 × 10^6 cells/ml) of 1.6 µg/mL (≈ 5.11 µM). It also gave an MIC (Shigella Sonnei EW 33; inoculum 1 × 10^8 cells/ml) of 1.6 µg/mL (≈ 5.11 µM), an MIC ([5]; FDA209, read-out: Minimum Inhibitory Concentration, inoculum 1 × 10^6 cells/ml) of 25 µg/mL (≈ 79.8 µM) and an MIC ([5]; FDA209, read-out: Minimum Inhibitory Concentration, inoculum 1 × 10^8 cells/ml) of 25 µg/mL (≈ 79.8 µM). For the same compound, the MIC [6, 20] was 1.6 µg/mL (≈ 5.11 µM), the MIC [6, 21] was 3.1 µg/mL (≈ 9.89 µM) and the MIC ([7]; E2, read-out: Minimum Inhibitory Concentration, inoculum 1 × 10^6 cells/ml) was 3.1 µg/mL (≈ 9.89 µM). For the same compound, the MIC ([7]; E2, read-out: Minimum Inhibitory Concentration, inoculum 1 × 10^8 cells/ml) was 6.3 µg/mL (≈ 20.1 µM), the MIC ([8]; ST101, read-out: Minimum Inhibitory Concentration, inoculum 1 × 10^6 cells/ml) was 0.2 µg/mL (≈ 0.638 µM) and the MIC ([8]; ST101, read-out: Minimum Inhibitory Concentration, inoculum 1 × 10^8 cells/ml) was 0.8 µg/mL (≈ 2.55 µM). It also gave an MIC ([9]; IFO12979, read-out: Minimum Inhibitory Concentration, inoculum 1 × 10^6 cells/ml) of 0.4 µg/mL (≈ 1.28 µM), an MIC ([9]; IFO12979, read-out: Minimum Inhibitory Concentration, inoculum 1 × 10^8 cells/ml) of 0.8 µg/mL (≈ 2.55 µM) and an MIC ([10]; PCI219, read-out: Minimum Inhibitory Concentration, inoculum 1 × 10^6 cells/ml) of 3.1 µg/mL (≈ 9.89 µM). It also gave an MIC ([10]; PCI219, read-out: Minimum Inhibitory Concentration, inoculum 1 × 10^8 cells/ml) of 3.1 µg/mL (≈ 9.89 µM), an MIC ([11]; IIDOX19, inoculum 1 × 10^6 cells/ml) of 0.8 µg/mL (≈ 2.55 µM) and an MIC ([11]; IIDOX19, inoculum 1 × 10^8 cells/ml) of 3.1 µg/mL (≈ 9.89 µM). It also gave an MIC ([12]; IIDS23, read-out: Minimum Inhibitory Concentration, inoculum 1 × 10^6 cells/ml) of 50 µg/mL (≈ 160 µM), an MIC ([12]; IIDS23, read-out: Minimum Inhibitory Concentration, inoculum 1 × 10^8 cells/ml) of 100 µg/mL (≈ 319 µM) and an MIC (Escherichia Coli NIHJ; [20]) of 0.4 µg/mL (≈ 1.28 µM). It also gave an MIC (Escherichia Coli NIHJ; [21]) of 0.8 µg/mL (≈ 2.55 µM), an MIC [13, 20] of 50 µg/mL (≈ 160 µM) and an MIC [13, 21] of 100 µg/mL (≈ 319 µM). For the same compound, the MIC [14, 20] was 25 µg/mL (≈ 79.8 µM), the MIC [14, 21] was 50 µg/mL (≈ 160 µM) and the MIC ([15]; Yersinia enterocolitica, 03, read-out: Minimum Inhibitory Concentration, inoculum 1 × 10^6 cells/ml) was 1.6 µg/mL (≈ 5.11 µM). For the same compound, the MIC ([15]; Yersinia enterocolitica, 03, read-out: Minimum Inhibitory Concentration, inoculum 1 × 10^8 cells/ml) was 1.6 µg/mL (≈ 5.11 µM), the MIC [16] was 6.3 µg/mL (≈ 20.1 µM) and the MIC [17, 22] was 12.5 µg/mL (≈ 39.9 µM). It also gave an MIC [17, 23] of 12.5 µg/mL (≈ 39.9 µM), an MIC [17, 24] of 6.3 µg/mL (≈ 20.1 µM) and an MIC [17, 25] of 12.5 µg/mL (≈ 39.9 µM). It also gave an MIC [17, 26] of 6.3 µg/mL (≈ 20.1 µM), an MIC [17, 27] of 12.5 µg/mL (≈ 39.9 µM) and an MIC [17, 28] of 6.3 µg/mL (≈ 20.1 µM). It also gave an MIC [17, 29] of 12.5 µg/mL (≈ 39.9 µM), an MIC [18, 22] of 3.1 µg/mL (≈ 9.89 µM) and an MIC [18, 23] of 6.3 µg/mL (≈ 20.1 µM). The MIC [18, 24] was 3.1 µg/mL (≈ 9.89 µM), the MIC [18, 25] was 6.3 µg/mL (≈ 20.1 µM) and the MIC [18, 26] was 3.1 µg/mL (≈ 9.89 µM). It also gave an MIC [18, 27] of 3.1 µg/mL (≈ 9.89 µM), an MIC [18, 28] of 1.6 µg/mL (≈ 5.11 µM) and an MIC [18, 29] of 3.1 µg/mL (≈ 9.89 µM). For the same compound, the MIC ([19]; IFO13696, read-out: Minimum Inhibitory Concentration, horse serum 0%, inoculum 10^6) was 0.4 µg/mL (≈ 1.28 µM), the MIC ([19]; IFO13696, read-out: Minimum Inhibitory Concentration, horse serum 0%, inoculum 10^8) was 0.8 µg/mL (≈ 2.55 µM) and the MIC ([19]; IFO13696, read-out: Minimum Inhibitory Concentration, horse serum 10%, inoculum 10^6) was 0.4 µg/mL (≈ 1.28 µM). The MIC ([19]; IFO13696, read-out: Minimum Inhibitory Concentration, horse serum 10%, inoculum 10^8) was 0.8 µg/mL (≈ 2.55 µM), the MIC ([19]; IFO13696, read-out: Minimum Inhibitory Concentration, horse serum 20%, inoculum 10^6) was 0.4 µg/mL (≈ 1.28 µM) and the MIC ([19]; IFO13696, read-out: Minimum Inhibitory Concentration, horse serum 20%, inoculum 10^8) was 0.8 µg/mL (≈ 2.55 µM). For the same compound, the MIC ([19]; IFO13696, read-out: Minimum Inhibitory Concentration, horse serum 40%, inoculum 10^6) was 0.4 µg/mL (≈ 1.28 µM) and the MIC ([19]; IFO13696, read-out: Minimum Inhibitory Concentration, horse serum 40%, inoculum 10^8) was 0.4 µg/mL (≈ 1.28 µM).
